Measurements from patent publication US20230086099A1, “COMBINATION THERAPY FOR TREATMENT OF CANCER AND CANCER METASTASIS” (ONA Therapeutics, S.L., priority 2020, published 2023).

B1: ONA-0: anti-CD36 antibody ONA-0 (also known as ONA-0-v1; as described in U.S. Patent Application No. 63/117,529) (antibody)
heavy: QVQLKQSGADLVRPGASVKLSCKASGYTFTDYYINWVKQRPGQGLEWIARIYPGSGNTYYNEKFKGKATLTAEKSSSTAYMQLSSLTSEDSAVYFCARGIGGGFGMDYWGQGTSVTVSSESARNPTIYPLTLPPVLCSDPVIIGCLIHDYFPFGTMNVTWGKSGKDITTVNFPPALASGGRYTMSSQLTLPAVECPEGESVKCSVQHDSNPVQELDVNCSPTPPPPITIPSCQPSLSLQRPALEDLLLGSDASITCTLNGLRNPEGAAFTWEPSTGKDAVQKKAAQNSCGCYSVSSVLPGCAERWNSGASFKCTVTHPESGTLTGTIAKVTVNTFPPQVHLLPPPSEELALNELLSLTCLVRAFNPKEVLVRWLHGNEELSPESYLVFEPLKEPGEGATTYLVTSVLRVSAETWKQGDQYSCMVGHEALPMNFTQKTIDRLSGKPTNVSVSVIMSEGDGICY
light: SIVMTQTPKFLLVSAGDRITITCKASQSVSDDVAWYQQKPGQSPKLLIYYASNRYTGVPDRFTGSGYGTDFTFTISTVQAEDLAVYFCQQDYSSPLTFGAGTKLEIKRADAAPTVSIFPPSSEQLTSGGASVVCFLNNFYPKDINVKWKIDGSERQNGVLNSWTDQDSKDSTYSMSSTLTLTKDEYERHNSYTCEATHKTSTSPIVKSFNRNEC

How the values were obtained:
[1] = test system: Detroit oral cancer cells; assay: Detroit oral cancer cells inoculated in NSG mice: anti-CD36 antibody with cisplatin; format: in vivo; conditions: lung metastases from oral cancer, H&E staining of the lungs; FIGS. 2, 3A-3B
Protocol: (§1) Studies on the combination of anti-CD36 antibody with cisplatin were performed in NSG mice (immuno-deficient) males and females (first experiment mice directly bought, follow up experiments in house breeding) All mice were inoculated with commercially available oral cancer cells Ab dosing was always done daily i.p.
(§2) Two types of oral cancer cell lines were inoculated: • Detroit: “medium” metastatic and very large primary tumor • FaDu: “very strong” metastatic and small primary tumor
(§3) 50,000 or 100,000 cancer cells were inoculated. The starting time of treatment was the amount of days after inoculation of the cancer cells Ab treatment starts.

OVCAR-3 cells = assay: OVCAR-3 orthotopic mouse model of ovarian cancer; format: in vivo, NSG mice
Protocol: Studies of the effects of the combination of ONA-0 anti-CD36 antibody and cisplatin on ovarian cancer were performed in NSG mice (immuno-deficient). The studies included only female mice. All mice were inoculated with commercially available OVCAR-3 (ATCC) cancer cells. OVCAR-3 cells were derived from a human progressive adenocarcinoma of the ovary (i.e., from an ovarian cancer). Prior to inoculation, the OVCAR-3 cells were cultured in a humidified incubator at 37° C. with 5% CO2, and were grown in RPMI-1640 supplemented with 5 μg ml^−1 penicillin/streptomycin, 0.01 mg/ml bovine insulin and 20% FBS (GIBCO). For each mouse, a piece of an OVCAR-3 xenograft was implanted orthotopically. Treatment of the implanted mice began 23 days after implantation with the OVCAR-3 tumor pieces. Inoculated mice were divided into one of two treatment groups: cisplatin injection control (n=9) or cisplatin in combination with ONA-0 treatment (n=8). Antibody treatments were administered via intraperitoneal (i.p.) injection daily at a dose of 3 mg/kg and cisplatin treatments were administered via intraperitoneal (i.p.) injection twice per week at a dose of 2 mg/kg (FIG. 7B). Mice were sacrificed at the end of the treatment period. Upon sacrifice, organs and tissues were collected for performance of immunohistochemistry analysis.

[2] = test system: FaDu cell line (oral cancer cell line); assay: FaDu oral cancer cells inoculated in NSG mice: lymph node metastases, ONA-0 with cisplatin; format: in vivo
Protocol: as §1, §2, §3

Molecule | lung metastases, size and number [1] | SR positive area (collagenous and fibrotic areas) of primary tumors (OVCAR-3 cells; Sirius red staining, FIG. 9C) | primary tumor weight, average (OVCAR-3 cells; at sacrifice, FIG. 9B) | percent necrosis of primary tumors (OVCAR-3 cells; histology, blinded quantification by a pathologist, FIG. 9C) | percentage of mice with metastasis in the liver (OVCAR-3 cells; macroscopic, visual inspection, FIG. 8A) | percentage of animals with metastasis in the peritoneal wall (OVCAR-3 cells; macroscopic, visual inspection, ONA-0 3 mg/kg i.p. daily, cisplatin 2 mg/kg i.p. twice per week, FIG. 8A) | efficacy on lymph node metastases ([2]; study of FIGS. 4A-4E) | efficacy on lymph node metastasis ([2]; study of FIGS. 5A-5E and 6A-6B)
N.N.[Cl][Pt][Cl] [cisplatin] | reduces the size of metastases | 27.45% | 0.468 grams | approximately 14.2% | 11% | 22% |  | 
B1 |  |  |  |  |  |  | demonstrates efficacy on lymph node metastases | effective as a monotherapy
